Source: US9353090B2, “Heterocyclic carboxylic acids as activators of soluble guanylate cyclase” (Boehringer Ingelheim International GmbH, priority 2014, dated 2016)
≈ marks a conversion by molar mass, not a printed value.

Legend:
physchem = details: kinetic from dmso stock
[1] = Human liver microsome (HLM) metabolic stability assay; assay type: in vitro ADME; details: human liver microsomes
Outline: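 Remaining parent measured by LC/MS/MS (ESI, MRM) at 5, 15, 30 and 60 min relative to 0 min. Incubation: 1 uM compound, HLMs, NADPH-started, 37° C., 60 min total, single replicate. Slope of ln(% remaining) gives t1/2 = 0.693/slope, then CLint, CLh and % Qh.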

[2] = molecular target: human soluble guanylate cyclase alpha 1 and beta 1 subunits (sGC) (Homo sapiens (Human), UniProt Q02108+Q02153); test: sGC cellular activator assay (cGMP, HTRF), in the presence and absence of 50% human serum; assay type: cell-based; details: CHO cells stably expressing human sGC alpha 1/beta 1, preincubated with 40 microM ODQ; cGMP by HTRF; Table 2 does not state whether with or without 50% human serum
Outline: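 First, CHO-sGC (human α1β1) cells get 1 h ODQ at 40 microM with IBMX and 0.1% BSA. Finally, cGMP is quantified by HTRF and EC50 computed.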

[3] = pH 2.2, aqueous buffer, Solubility (pH 2.2)
[4] = pH 4.5, aqueous buffer, Solubility (pH 4.5)
[5] = pH 6.8, aqueous buffer, Solubility (pH 6.8)

Sequence of human soluble guanylate cyclase alpha 1 and beta 1 subunits (sGC) (Q02108 whole entry partner): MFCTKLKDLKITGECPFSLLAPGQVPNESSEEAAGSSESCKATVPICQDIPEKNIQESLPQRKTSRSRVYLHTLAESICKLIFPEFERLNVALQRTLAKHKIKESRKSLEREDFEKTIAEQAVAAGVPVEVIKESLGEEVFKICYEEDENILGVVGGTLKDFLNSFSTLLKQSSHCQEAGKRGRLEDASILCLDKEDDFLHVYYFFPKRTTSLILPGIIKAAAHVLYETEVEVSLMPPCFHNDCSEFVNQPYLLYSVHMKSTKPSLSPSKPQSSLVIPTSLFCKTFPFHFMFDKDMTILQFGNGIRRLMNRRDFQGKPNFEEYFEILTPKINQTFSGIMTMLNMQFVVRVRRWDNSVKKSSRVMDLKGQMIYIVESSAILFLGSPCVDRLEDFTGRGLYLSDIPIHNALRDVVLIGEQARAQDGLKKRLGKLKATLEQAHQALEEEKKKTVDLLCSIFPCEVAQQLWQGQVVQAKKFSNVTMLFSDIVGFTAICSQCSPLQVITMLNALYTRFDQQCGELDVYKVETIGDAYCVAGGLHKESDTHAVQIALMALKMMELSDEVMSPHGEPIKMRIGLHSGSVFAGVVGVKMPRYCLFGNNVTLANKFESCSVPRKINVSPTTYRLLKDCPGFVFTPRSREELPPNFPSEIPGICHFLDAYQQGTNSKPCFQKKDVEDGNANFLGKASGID
Sequence of human soluble guanylate cyclase alpha 1 and beta 1 subunits (sGC) (Q02153 whole entry): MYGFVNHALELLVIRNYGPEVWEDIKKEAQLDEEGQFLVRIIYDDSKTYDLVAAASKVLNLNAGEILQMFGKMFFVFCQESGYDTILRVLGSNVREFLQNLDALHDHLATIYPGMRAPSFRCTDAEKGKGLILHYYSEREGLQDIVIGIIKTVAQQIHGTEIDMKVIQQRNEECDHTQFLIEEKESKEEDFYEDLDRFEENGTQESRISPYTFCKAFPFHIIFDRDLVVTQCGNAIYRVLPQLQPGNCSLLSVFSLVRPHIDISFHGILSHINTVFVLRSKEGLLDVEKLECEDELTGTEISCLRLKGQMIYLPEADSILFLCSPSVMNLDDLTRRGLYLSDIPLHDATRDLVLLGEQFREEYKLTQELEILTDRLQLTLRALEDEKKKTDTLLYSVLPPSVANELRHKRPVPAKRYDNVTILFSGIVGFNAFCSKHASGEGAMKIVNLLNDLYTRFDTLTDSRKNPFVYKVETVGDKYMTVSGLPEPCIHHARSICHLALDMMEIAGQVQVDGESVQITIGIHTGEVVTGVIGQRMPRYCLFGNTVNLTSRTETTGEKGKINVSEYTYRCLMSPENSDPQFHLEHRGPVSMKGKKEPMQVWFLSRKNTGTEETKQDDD

Row | SMILES | solubility at 24 h (physchem; [3]) [mg/mL] | solubility at 24 h (physchem; [4]) [mg/mL] | solubility at 24 h (physchem; [5]) [mg/mL] | Metabolic stability (Qh %), % hepatic blood flow [1] [%] | EC50 [2] [µM]
1 | Cc1ccc(OCc2ccc3c(c2)CCN(C2CCOC2)C3)c(-c2csc(N3CC[C@@]4(C(=O)O)C[C@H]4C3)n2)c1 (some centres unmarked) [Compound 114] | 0.12 (≈ 220 µM) | 0.038 (≈ 69.6 µM) | 0.005 (≈ 9.16 µM) | <24 | 0.007
2 | Cc1ccc(OCc2ccc3c(c2C)CCN(C2CCOCC2)C3)c(-c2csc(N3CC[C@@]4(C(=O)O)C[C@H]4C3)n2)c1 [Compound 115] | 0.13 (≈ 227 µM) | 0.036 (≈ 62.7 µM) | 0.0051 (≈ 8.89 µM) | <24 | 0.011
3 | Cc1ccc(OCc2ccc3c(c2C)CCN(CC2COCCO2)C3)c(-c2csc(N3CC[C@@]4(C(=O)O)C[C@H]4C3)n2)c1 (some centres unmarked) [Compound 117] | 0.12 (≈ 203 µM) | 0.042 (≈ 71.2 µM) | 0.0034 (≈ 5.77 µM) | 27 | 0.002
4 | Cc1ccc(OCc2ccc3c(c2C)CCN(C2CCCOC2)C3)c(-c2csc(N3CC[C@@]4(C(=O)O)C[C@H]4C3)n2)c1 (some centres unmarked) [Compound 118] | 0.12 (≈ 209 µM) | 0.021 (≈ 36.6 µM) | < 0.0001 | 34 | 0.004
5 | Cc1ccc(OCc2ccc3c(c2C)CCN(C2CCOC2)C3)c(-c2csc(N3CC[C@@]4(C(=O)O)C[C@H]4C3)n2)c1 (some centres unmarked) [Compound 119] | 0.12 (≈ 214 µM) | 0.018 (≈ 32.2 µM) | 0.0013 (≈ 2.32 µM) | <24 | 0.003
6 | Cc1ccc(OCc2cc(C)c3c(c2)CCN(CC2COCCO2)C3)c(-c2csc(N3CC[C@@]4(C(=O)O)C[C@H]4C3)n2)c1 (some centres unmarked) [Compound 120] | 0.13 (≈ 220 µM) | 0.027 (≈ 45.8 µM) | 0.0022 (≈ 3.73 µM) | <24 | 0.006
7 | Cc1ccc(OCc2cc(C)c3c(c2C)CCN(C2CCOC2)C3)c(-c2csc(N3CC[C@@]4(C(=O)O)C[C@H]4C3)n2)c1 (some centres unmarked) [Compound 129] | 0.12 (≈ 209 µM) | 0.0077 (≈ 13.4 µM) | 0.00049 (≈ 0.854 µM) | <24 | 0.006
8 | Cc1ccc(OCc2ccc3c(c2C)CCN(C2CCOC2)CC3)c(-c2csc(N3CC[C@@]4(C(=O)O)C[C@H]4C3)n2)c1 (some centres unmarked) [Compound 133] | 0.09 (≈ 157 µM) | 0.012 (≈ 20.9 µM) | 0.0016 (≈ 2.79 µM) | 43 | 0.018
9 | Cc1ccc(OCc2ccc3c(c2C)CCN(C2CCCOC2)CC3)c(-c2csc(N3CC[C@@]4(C(=O)O)C[C@H]4C3)n2)c1 (some centres unmarked) [Compound 134] | 0.11 (≈ 187 µM) | 0.0085 (≈ 14.5 µM) | 0.00095 (≈ 1.62 µM) | 53 | 0.011
10 | Cc1cccc(-c2csc(N3C[C@@H]4C[C@]4(C(=O)O)C3)n2)c1OCc1ccc2c(c1)CCN(C1CCOCC1)C2 [Compound 135] | 0.1 (≈ 183 µM) | 0.07 (≈ 128 µM) | 0.056 (≈ 103 µM) | <24 | 0.039
11 | Cc1cccc(-c2csc(N3C[C@@H]4C[C@]4(C(=O)O)C3)n2)c1OCc1ccc2c(c1C)CCN(C1CCC1)C2 [Compound 137] | 0.1 (≈ 189 µM) | 0.071 (≈ 134 µM) | 0.051 (≈ 96.3 µM) | 32 | 0.067
12 | Cc1cc(COc2c(C)cccc2-c2csc(N3C[C@@H]4C[C@]4(C(=O)O)C3)n2)cc2c1CN(C1CCOCC1)CC2 [Compound 140] | 0.1 (≈ 179 µM) | 0.073 (≈ 130 µM) | 0.06 (≈ 107 µM) | <24 | 0.005
13 | Cc1cccc(-c2csc(N3C[C@@H]4C[C@]4(C(=O)O)C3)n2)c1OCc1ccc2c(c1C)CCN(C1CCOCC1)CC2 [Compound 144] | 0.11 (≈ 192 µM) | 0.074 (≈ 129 µM) | 0.062 (≈ 108 µM) | <24 | 0.01
14 | Cc1ccc(OCc2ccc3c(c2)CCN(C2CCOCC2)C3)c(-c2csc(N3C[C@@H]4C[C@]4(C(=O)O)C3)n2)c1 [Compound 145] | 0.11 (≈ 202 µM) | 0.062 (≈ 114 µM) | 0.028 (≈ 51.3 µM) | <24 | 0.162
15 | Cc1ccc(OCc2ccc3c(c2C)CCN(C2CCOCC2)C3)c(-c2csc(N3C[C@@H]4C[C@]4(C(=O)O)C3)n2)c1 [Compound 146] | 0.11 (≈ 197 µM) | 0.059 (≈ 105 µM) | 0.0099 (≈ 17.7 µM) | 26 | 0.057
16 | Cc1ccc(OCc2ccc3c(c2)CCN(C2CCOCC2)CC3)c(-c2csc(N3C[C@@H]4C[C@]4(C(=O)O)C3)n2)c1 [Compound 147] | > 0.14 | < 0.0001 | < 0.0001 | <24 | 0.049

Continued by falling EC50 [2], values first:

Row | solubility at 24 h (physchem; [3]) [mg/mL] | solubility at 24 h (physchem; [4]) [mg/mL] | solubility at 24 h (physchem; [5]) [mg/mL] | Metabolic stability (Qh %), % hepatic blood flow [1] [%] | EC50 [2] [µM] | SMILES
17 | 0.13 (≈ 232 µM) | 0.0028 (≈ 5 µM) | 0.0018 (≈ 3.22 µM) | <24 | 0.044 | Cc1ccc(OCc2cc(C)c3c(c2C)CCN(C2COC2)C3)c(-c2csc(N3CC[C@@]4(C(=O)O)C[C@H]4C3)n2)c1 [Compound 126]
18 | 0.14 (≈ 257 µM) | 0.011 (≈ 20.2 µM) | 0.006 (≈ 11 µM) | <24 | 0.035 | Cc1ccc(OCc2ccc3c(c2C)CCN(C2COC2)C3)c(-c2csc(N3CC[C@@]4(C(=O)O)C[C@H]4C3)n2)c1 [Compound 116]
19 | 0.11 (≈ 203 µM) | 0.038 (≈ 70 µM) | 0.081 (≈ 149 µM) | <24 | 0.034 | Cc1cccc(-c2csc(N3C[C@@H]4C[C@]4(C(=O)O)C3)n2)c1OCc1cc(C#N)c2c(c1)CCN(C1COC1)C2 [Compound 141]
20 | 0.14 (≈ 238 µM) | 0.02 (≈ 34 µM) | 0.0012 (≈ 2.04 µM) | <24 | 0.023 | Cc1ccc(OCc2cc(C)c3c(c2C)CCN(C2CCOCC2)C3)c(-c2csc(N3CC[C@@]4(C(=O)O)C[C@H]4C3)n2)c1 [Compound 125]
21 | 0.11 (≈ 193 µM) | 0.069 (≈ 121 µM) | 0.069 (≈ 121 µM) | <24 | 0.023 | Cc1cccc(-c2csc(N3C[C@@H]4C[C@]4(C(=O)O)C3)n2)c1OCc1cc(C#N)c2c(c1)CCN(C1CCOCC1)C2 [Compound 142]
22 | 0.11 (≈ 182 µM) | 0.023 (≈ 38.1 µM) | 0.0031 (≈ 5.13 µM) | 46 | 0.022 | Cc1ccc(OCc2ccc3c(c2C)CCN(CC2COCCO2)CC3)c(-c2csc(N3CC[C@@]4(C(=O)O)C[C@H]4C3)n2)c1 (some centres unmarked) [Compound 132]
23 | 0.11 (≈ 197 µM) | 0.076 (≈ 136 µM) | 0.062 (≈ 111 µM) | <24 | 0.018 | Cc1cccc(-c2csc(N3C[C@@H]4C[C@]4(C(=O)O)C3)n2)c1OCc1ccc2c(c1C)CCN(C1CCOCC1)C2 [Compound 136]
24 | 0.1 (≈ 188 µM) | 0.059 (≈ 111 µM) | 0.065 (≈ 122 µM) | <24 | 0.018 | Cc1cccc(-c2csc(N3C[C@@H]4C[C@]4(C(=O)O)C3)n2)c1OCc1ccc2c(c1C)CCN(C1COC1)C2 [Compound 138]
25 | 0.12 (≈ 220 µM) | 0.0037 (≈ 6.78 µM) | 0.0049 (≈ 8.98 µM) | 31 | 0.014 | Cc1ccc(OCc2cc(C)c3c(c2)CCN(C2COC2)C3)c(-c2csc(N3CC[C@@]4(C(=O)O)C[C@H]4C3)n2)c1 [Compound 124]
26 | 0.12 (≈ 209 µM) | 0.032 (≈ 55.8 µM) | 0.0033 (≈ 5.75 µM) | <24 | 0.01 | Cc1ccc(OCc2cc(C)c3c(c2)CCN(C2CCOCC2)C3)c(-c2csc(N3CC[C@@]4(C(=O)O)C[C@H]4C3)n2)c1 [Compound 123]
27 | 0.12 (≈ 204 µM) | 0.0063 (≈ 10.7 µM) | 0.0003 (≈ 0.51 µM) | <24 | 0.009 | Cc1ccc(OCc2cc(C)c3c(c2C)CCN(C2CCCOC2)C3)c(-c2csc(N3CC[C@@]4(C(=O)O)C[C@H]4C3)n2)c1 (some centres unmarked) [Compound 128]
28 | 0.11 (≈ 202 µM) | 0.07 (≈ 128 µM) | 0.056 (≈ 103 µM) | <24 | 0.009 | Cc1cccc(-c2csc(N3C[C@@H]4C[C@]4(C(=O)O)C3)n2)c1OCc1ccc2c(c1C)CCN(C1COC1)CC2 [Compound 143]
29 | 0.096 (≈ 181 µM) | 0.058 (≈ 109 µM) | 0.059 (≈ 111 µM) | <24 | 0.007 | Cc1cc(COc2c(C)cccc2-c2csc(N3C[C@@H]4C[C@]4(C(=O)O)C3)n2)cc2c1CN(C1COC1)CC2 [Compound 139]
30 | 0.12 (≈ 204 µM) | 0.02 (≈ 34 µM) | 0.0029 (≈ 4.93 µM) | <24 | 0.006 | Cc1ccc(OCc2ccc3c(c2C)CCN(C2CCOCC2)CC3)c(-c2csc(N3CC[C@@]4(C(=O)O)C[C@H]4C3)n2)c1 [Compound 130]
31 | 0.13 (≈ 215 µM) | 0.017 (≈ 28.2 µM) | 0.00077 (≈ 1.28 µM) | <24 | 0.003 | Cc1ccc(OCc2cc(C)c3c(c2C)CCN(CC2COCCO2)C3)c(-c2csc(N3CC[C@@]4(C(=O)O)C[C@H]4C3)n2)c1 (some centres unmarked) [Compound 127]
